The target of experiment [1] is T1, human phosphodiesterase 5 (PDE 5) (Homo sapiens, UniProt O76074).
T1 construct: PDE 5 preparations are obtained from human platelets by disruption; from tissue; host or cells: human platelets
Briefly: Inhibition of human phosphodiesterase 5 (PDE 5). It counts as biochemical. As to conditions: PDE 5 preparation from human platelets; in some cases means of individual determinations. The method, then: B-3. Inhibition of Human Phosphodiesterase 5 (PDE 5)
PDE 5 preparations are obtained from human platelets by disruption (Microfluidizer®, 800 bar, 3 passes), followed by centrifugation (75 000 g, 60 min, 4° C.) and ion exchange chromatography of the supernatant on a Mono Q 10/10 column (linear sodium chloride gradient, elution with a 0.2-0.3M solution of sodium chloride in buffer (20 mM Hepes pH 7.2, 2 mM magnesium chloride). Fractions having PDE 5 activity are combined (PDE 5 preparation) and stored at −80° C.
To determine their in vitro action on human PDE 5, the test substances are dissolved in 100% DMSO and serially diluted. Typically, dilution series (1:3) from 200 μM to 0.091 μM are prepared (resulting final concentrations in the test: 4 μM to 0.0018 μM). In each case 2 μl of the diluted substance solutions are placed into the wells of microtitre plates (Isoplate-96/200W; Perkin Elmer). Subsequently, 50 μl of a dilution of the above-described PDE 5 preparation are added. The dilution of the PDE 5 preparation is chosen such that during the later incubation less than 70% of the substrate are converted (typical dilution: 1:100; dilution buffer: 50 mM tris/hydrochloric acid pH 7.5, 8.3 mM magnesium chloride, 1.7 mM EDTA, 0.2% BSA). The substrate, [8-^3H] cyclic guanosine-3′,5′-monophosphate (1 μCi/μl; Perkin Elmer), is diluted 1:2000 with assay buffer (50 mM tris/hydrochloric acid pH 7.5, 8.3 mM magnesium chloride, 1.7 mM EDTA) to a concentration of 0.0005 μCi/μl. By addition of 50 μl (0.025 μCi) of the diluted substrate, the enzyme reaction is finally started. The test mixtures are incubated at room temperature for 60 min and the reaction is stopped by adding 25 μl of a suspension of 18 mg/ml yttrium scintillation proximity beads in water (phosphodiesterase beads for SPA assays, RPNQ 0150, Perkin Elmer). The microtitre plates are sealed with a film and left to stand at room temperature for 60 min. Subsequently, the plates are analysed for 30 s per well in a Microbeta scintillation counter (Perkin Elmer). IC50 values are determined using the graphic plot of the substance concentration against percentage PDE 5 inhibition.

The target of experiment [2] is T2, recombinant guanylate cyclase reporter cell line (Rattus norvegicus, UniProt P19686+P20595).
T2 construct: expressed in transfected cells
T2 sequence (P19686 1-690): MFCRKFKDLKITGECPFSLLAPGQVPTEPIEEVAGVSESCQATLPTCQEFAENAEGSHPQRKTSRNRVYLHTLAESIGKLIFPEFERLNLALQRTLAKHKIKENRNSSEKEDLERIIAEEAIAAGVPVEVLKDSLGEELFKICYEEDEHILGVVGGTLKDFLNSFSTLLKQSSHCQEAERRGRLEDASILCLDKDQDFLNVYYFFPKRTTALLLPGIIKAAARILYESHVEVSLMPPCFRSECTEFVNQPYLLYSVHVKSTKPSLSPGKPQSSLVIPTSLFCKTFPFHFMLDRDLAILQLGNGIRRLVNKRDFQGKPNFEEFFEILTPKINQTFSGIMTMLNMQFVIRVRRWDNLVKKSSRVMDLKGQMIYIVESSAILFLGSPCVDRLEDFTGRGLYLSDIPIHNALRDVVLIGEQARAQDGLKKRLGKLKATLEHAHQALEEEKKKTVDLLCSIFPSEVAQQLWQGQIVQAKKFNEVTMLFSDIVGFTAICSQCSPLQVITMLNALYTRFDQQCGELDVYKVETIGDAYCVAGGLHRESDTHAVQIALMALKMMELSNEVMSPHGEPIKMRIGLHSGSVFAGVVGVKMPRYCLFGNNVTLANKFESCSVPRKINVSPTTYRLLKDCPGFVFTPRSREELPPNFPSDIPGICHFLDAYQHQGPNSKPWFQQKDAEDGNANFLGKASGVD
T2 sequence (P20595 1-619): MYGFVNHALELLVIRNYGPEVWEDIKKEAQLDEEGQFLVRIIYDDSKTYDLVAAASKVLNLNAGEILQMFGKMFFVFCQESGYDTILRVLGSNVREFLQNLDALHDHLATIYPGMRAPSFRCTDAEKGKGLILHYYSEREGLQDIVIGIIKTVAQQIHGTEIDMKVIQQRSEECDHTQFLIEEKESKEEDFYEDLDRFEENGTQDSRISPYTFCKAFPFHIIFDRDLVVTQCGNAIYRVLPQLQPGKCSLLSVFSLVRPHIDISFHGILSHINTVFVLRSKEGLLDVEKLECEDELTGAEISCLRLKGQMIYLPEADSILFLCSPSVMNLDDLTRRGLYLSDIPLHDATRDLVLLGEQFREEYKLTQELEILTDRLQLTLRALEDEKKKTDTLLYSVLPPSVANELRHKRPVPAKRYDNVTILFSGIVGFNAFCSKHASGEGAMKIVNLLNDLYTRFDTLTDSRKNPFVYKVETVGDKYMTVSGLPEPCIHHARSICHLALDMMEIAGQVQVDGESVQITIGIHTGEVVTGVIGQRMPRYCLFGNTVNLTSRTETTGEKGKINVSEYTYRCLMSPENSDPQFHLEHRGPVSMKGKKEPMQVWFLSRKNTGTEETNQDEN
Briefly: Effect on a recombinant guanylate cyclase reporter cell line. Conditions: MEC = minimum effective concentration; in some cases means of individual determinations. It counts as cell-based. The protocol: B-2. Effect on a Recombinant Guanylate Cyclase Reporter Cell Line
The cellular activity of the compounds of the invention is determined using a recombinant guanylate cyclase reporter cell line, as described in F. Wunder et al., Anal. Biochem. 2005, 339, 104-112. Representative values (MEC=minimum effective concentration) for the compounds of the invention are shown in the table below (Table 1B; in some cases as means of individual determinations): […]

The structures appear in SMILES notation.

Drawing on US20170233413A1, “SUBSTITUTED ANNULATED PYRIMIDINES AND USE THEREOF” (Bayer Pharma Aktiengesellschaft, priority 2014, published 2017), this text covers IC50 and MEC for 16 molecules.

Broadly, the IC50 is the point on the concentration scale where inhibition reaches its midpoint. Low values mean greater potency, high ones weaker potency.

In experiment [1], `CC1(C)C(=O)Nc2nc(-c3nn(Cc4ccccc4F)c4ncccc34)nc(C(=O)N3CCC(O)C3)c21` (centres unmarked) [Example 26] had an IC50 of 930 nM. Moreover, the MEC in experiment [2] was 0.3 µM.

In the case of `Cc1nc2c(cc1F)c(-c1nc3c(c(C(N)=O)n1)C(C)(C(F)(F)F)C(=O)N3)nn2Cc1ncccc1F` (single isomer, unassigned; ent-2) [Example 20, ent-2-{5-Fluoro-1-[(3-fluoropyridin-2-yl)methyl]-6-methyl-1H-pyrazolo[3,4-b]pyridin-3-yl}-5-methyl-6-oxo-5-(trifluoromethyl)-6,7-dihydro-5H-pyrrolo[2,3-d]pyrimidine-4-carboxamide (enantiomer B)], the IC50 in experiment [1] stood at 190 nM. Moreover, the MEC in experiment [2] is 1 µM.

As to `CN(CC1CC1)C(=O)c1nc(-c2nn(Cc3ccccc3F)c3ncccc23)nc2c1C(C)(C)C(=O)N2` [Example 111, N-(cyclopropylmethyl)-2-[1-(2-fluorobenzyl)-1H-pyrazolo[3,4-b]pyridin-3-yl]-N,5,5-trimethyl-6-oxo-6,7-dihydro-5H-pyrrolo[2,3-d]pyrimidine-4-carboxamide], the IC50 in experiment [1] amounted to 710 nM. The MEC in experiment [2] is 0.01 µM.

Consider `CC1(C)C(=O)Nc2nc(-c3nn(Cc4ccccc4F)c4ncccc34)nc(C(=O)NCC3CCCC3)c21` [Example 92, N-(cyclopentylmethyl)-2-[1-(2-fluorobenzyl)-1H-pyrazolo[3,4-b]pyridin-3-yl]-5,5-dimethyl-6-oxo-6,7-dihydro-5H-pyrrolo[2,3-d]pyrimidine-4-carboxamide], for which inhibition in experiment [1] was half-maximal at 35 nM (IC50). In addition, the MEC in experiment [2] was determined as 0.3 µM.

For the molecule `Cc1nc2c(cc1F)c(-c1nc3c(c(C(N)=O)n1)C(C)(C(F)(F)F)C(=O)N3)nn2Cc1ncccc1F` (racemic) [Example 18, rac-2-{5-Fluoro-1-[(3-fluoropyridin-2-yl)methyl]-6-methyl-1H-pyrazolo[3,4-b]pyridin-3-yl}-5-methyl-6-oxo-5-(trifluoromethyl)-6,7-dihydro-5H-pyrrolo[2,3-d]pyrimidine-4-carboxamide], 570 nM corresponded to half-maximal inhibition in experiment [1] (IC50). The MEC in experiment [2] stood at 0.3 µM.

`C[S+]([O-])CCNC(=O)c1nc(-c2nn(Cc3ccccc3F)c3ncccc23)nc2c1C(C)(C)C(=O)N2` (centres unmarked) [Example 64, 2-[1-(2-fluorobenzyl)-1H-pyrazolo[3,4-b]pyridin-3-yl]-5,5-dimethyl-N-[2-(methylsulfinyl)ethyl]-6-oxo-6,7-dihydro-5H-pyrrolo[2,3-d]pyrimidine-4-carboxamide] displayed an IC50 in experiment [1] of 74 nM. In experiment [2], the MEC was 1 µM.

`COCCCNC(=O)c1nc(-c2nn(Cc3ccccc3F)c3ncccc23)nc2c1C(C)(C)C(=O)N2` [Example 90, 2-[1-(2-fluorobenzyl)-1H-pyrazolo[3,4-b]pyridin-3-yl]-N-(3-methoxypropyl)-5,5-dimethyl-6-oxo-6,7-dihydro-5H-pyrrolo[2,3-d]pyrimidine-4-carboxamide]: the IC50 in experiment [1] was found to be 14 nM. Also, the MEC in experiment [2] was 0.1 µM.

In the case of `Cn1nccc1NC(=O)c1nc(-c2nn(Cc3ccccc3F)c3ncccc23)nc2c1C(C)(C)C(=O)N2` [Example 67, 2-[1-(2-fluorobenzyl)-1H-pyrazolo[3,4-b]pyridin-3-yl]-5,5-dimethyl-N-(1-methyl-1H-pyrazol-5-yl)-6-oxo-6,7-dihydro-5H-pyrrolo[2,3-d]pyrimidine-4-carboxamide], the IC50 in experiment [1] is 2.6 nM. For the same molecule, the MEC in experiment [2] was determined as 0.3 µM.

Consider `CC1(C)C(=O)Nc2nc(-c3nn(Cc4ccccc4F)c4ncccc34)nc(C(=O)Nc3cc[nH]n3)c21` [Example 87, 2-[1-(2-fluorobenzyl)-1H-pyrazolo[3,4-b]pyridin-3-yl]-5,5-dimethyl-6-oxo-N-(1H-pyrazol-3-yl)-6,7-dihydro-5H-pyrrolo[2,3-d]pyrimidine-4-carboxamide], for which the IC50 in experiment [1] turned out to be 24 nM. The MEC in experiment [2] came to 0.3 µM.

Regarding `Cc1ccc(NC(=O)c2nc(-c3nn(Cc4ccccc4F)c4ncccc34)nc3c2C(C)(C)C(=O)N3)cn1` [Example 91, 2-[1-(2-fluorobenzyl)-1H-pyrazolo[3,4-b]pyridin-3-yl]-5,5-dimethyl-N-(6-methylpyridin-3-yl)-6-oxo-6,7-dihydro-5H-pyrrolo[2,3-d]pyrimidine-4-carboxamide], the IC50 in experiment [1] is 68 nM. In experiment [2], the MEC came to 0.3 µM.

As to `CN(CC1CC1)C(=O)c1nc(-c2nn(Cc3ccccc3F)c3ncc(F)cc23)nc2c1C(C)(C)C(=O)N2` [Example 53], half-maximal inhibition in experiment [1] (IC50) required 110 nM. Moreover, the MEC in experiment [2] came out at 0.01 µM.

As to `CC1(C)C(=O)Nc2nc(-c3nn(Cc4ccccc4F)c4ncccc34)nc(C(=O)NCC(N)CC(F)(F)F)c21` (racemic) [Example 136, rac-N-(2-amino-4,4,4-trifluorobutyl)-2-[1-(2-fluorobenzyl)-1H-pyrazolo[3,4-b]pyridin-3-yl]-5,5-dimethyl-6-oxo-6,7-dihydro-5H-pyrrolo[2,3-d]pyrimidine-4-carboxamide], the IC50 in experiment [1] came out at 42 nM. The MEC in experiment [2] turned out to be 1 µM.

Turning to `C[C@H](NC(=O)c1nc(-c2nn(Cc3ccccc3F)c3ncccc23)nc2c1C(C)(C)C(=O)N2)C(N)=O` [Example 80, N-[(2S)-1-amino-1-oxopropan-2-yl]-2-[1-(2-fluorobenzyl)-1H-pyrazolo[3,4-b]pyridin-3-yl]-5,5-dimethyl-6-oxo-6,7-dihydro-5H-pyrrolo[2,3-d]pyrimidine-4-carboxamide], the IC50 in experiment [1] amounted to 23 nM. For the same molecule, the MEC in experiment [2] came out at 1 µM.

Molecule `CC1(C)C(=O)Nc2nc(-c3nn(Cc4ccccc4F)c4cc(Cl)ccc34)nc(C(=O)NCC(F)(F)F)c21` [Example 44] returned a concentration for half-maximal inhibition (IC50) in experiment [1] of 110 nM. In experiment [2], the MEC worked out at 0.3 µM.

With `CC1(C)C(=O)Nc2nc(-c3nn(Cc4ccccc4F)c4ncccc34)nc(C(=O)NCCC(F)(F)F)c21` [Example 74, 2-[1-(2-fluorobenzyl)-1H-pyrazolo[3,4-b]pyridin-3-yl]-5,5-dimethyl-6-oxo-N-(3,3,3-trifluoropropyl)-6,7-dihydro-5H-pyrrolo[2,3-d]pyrimidine-4-carboxamide], the IC50 in experiment [1] came out at 26 nM. Also, the MEC in experiment [2] stood at 0.1 µM.

In experiment [1], `Cc1nc2c(cc1F)c(-c1nc3c(c(C(=O)N(C)CC4CC4)n1)C(C)(C)C(=O)N3)nn2Cc1cccc(F)c1F` [Example 38] yielded a half-inhibitory concentration (IC50) of 770 nM. Further, in experiment [2], the MEC amounted to 0.01 µM.
